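Values below derive from 48-hour exposures of cells grown in 96-well plates, with endpoints linearly interpolated between the two concentrations bracketing the appropriate inhibition level. GI50 marks 50% less growth.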 The source made the active and inactive calls. Rule as the data show it: active = GI50 up to about 1.1 µM and inactive = higher.
Key:
Assay in all cases: NCI tumour cell line growth inhibition, 48 h
KM12 = tested on: KM12
OVCAR-5 = tested on: OVCAR-5
HL-60 = tested on: HL-60
MCF7 = tested on: MCF7
MOLT-4 = tested on: MOLT-4
SNB-19 = tested on: SNB-19
NCI-H23 = tested on: NCI-H23
PC-3 = tested on: PC-3
HCT-116 = tested on: HCT-116
OVCAR-4 = tested on: OVCAR-4
COLO 205 = tested on: COLO 205
LOX IMVI = tested on: LOX IMVI
MDA-N = tested on: MDA-N
HOP-92 = tested on: HOP-92
UO-31 = tested on: UO-31
RXF 393 = tested on: RXF 393
HCC 2998 = tested on: HCC 2998

Measured: GI50

C=C(CBr)CCCOCc1ccccc1
inactive: KM12 18.9 µM | OVCAR-5 18.7 µM | HL-60 23.5 µM | MCF7 30.5 µM | MOLT-4 30.8 µM | SNB-19 15.6 µM | NCI-H23 13.9 µM | PC-3 19.7 µM | HCT-116 41.6 µM | OVCAR-4 17.6 µM | COLO 205 27.6 µM | LOX IMVI 30.6 µM | MDA-N > 10 µM | HOP-92 21.6 µM | UO-31 13.7 µM

CC(C)(C)c1ccc(O)c(CN(Cc2c(O)ccc3ccccc23)C2CCCCC2)c1
inactive: KM12 17.6 µM | OVCAR-5 16.9 µM | MCF7 17.1 µM | MOLT-4 18.6 µM | SNB-19 18.5 µM | NCI-H23 16.4 µM | PC-3 14.5 µM | HCT-116 16.9 µM | OVCAR-4 20.7 µM | COLO 205 15.7 µM | LOX IMVI 10.4 µM | MDA-N 15.5 µM | RXF 393 17.5 µM | HOP-92 16.4 µM | UO-31 14.7 µM

CCOC(=O)C(NC(=O)OC(C)(C)C)C(=O)OCC
inactive: KM12 > 100 µM | OVCAR-5 > 100 µM | MCF7 > 100 µM | HCC 2998 > 100 µM | MOLT-4 > 100 µM | SNB-19 > 100 µM | NCI-H23 > 100 µM | PC-3 > 100 µM | HCT-116 > 100 µM | OVCAR-4 > 100 µM | COLO 205 > 100 µM | RXF 393 > 100 µM | HOP-92 > 100 µM | UO-31 > 100 µM

COc1ccc(C2c3cc4c(cc3OC(N3CCOCC3)C2C)OCO4)c(OC)c1OC (configuration not stated)
inactive: KM12 5.55 µM | OVCAR-5 17.1 µM | MCF7 10.9 µM | HCC 2998 10.8 µM | MOLT-4 10.6 µM | SNB-19 10.7 µM | NCI-H23 33.7 µM | PC-3 13.6 µM | HCT-116 10.3 µM | COLO 205 14.6 µM | LOX IMVI 14.5 µM | MDA-N 2.45 µM | UO-31 6.81 µM

O=S(=O)(c1ccccc1)n1c2ccc(Br)cc2c2nc3ccccc3nc21
inactive: KM12 > 100 µM | OVCAR-5 > 100 µM | HCC 2998 > 100 µM | MOLT-4 > 100 µM | SNB-19 > 100 µM | NCI-H23 > 100 µM | PC-3 > 100 µM | HCT-116 > 100 µM | OVCAR-4 > 100 µM | COLO 205 > 100 µM | LOX IMVI > 100 µM | MDA-N > 100 µM | RXF 393 > 100 µM | HOP-92 > 100 µM | UO-31 > 100 µM
